Source: the supplement of paper PMC12513837
± gives the standard deviation of the averaged measurements.

compound: CC(=O)N1CCc2c(c(N3CCCc4cc(-c5cnn(C)c5)c(C(F)F)cc43)nn2C2CCC(CN3CCN(c4ccc5c(c4)C(=O)N(C4CCC(=O)NC4=O)C5=O)CC3)CC2)C1 [CBPD-409]; test: AUC of viability dose-response curve (relative to vehicle, 8 doses up to 10 µM) (fraction); higher = less sensitive (more viable); extreme values may be limits of the assay
Protocol: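 PRISM multiplexed pooled barcoded cell line viability screen at the Broad Institute, 887 cancer cell lines treated with CBPD-409 (p300/CBP PROTAC degrader) at 8 concentrations in threefold dilution, top dose 10 µM. The read-out is the area under the dose-response curve of relative viability versus vehicle (n=3). AUC < 0.3 is called strongly sensitive and AUC > 0.8 resistant.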

Test System | AUC of viability dose-response curve
RO82W1_THYROID | 1
H357_UPPER_AERODIGESTIVE_TRACT | 0.815
KS1_CENTRAL_NERVOUS_SYSTEM | 0.307
SW1353_BONE | 1
IPC298_SKIN | 0.808
DBTRG05MG_CENTRAL_NERVOUS_SYSTEM | 0.854
ISHIKAWAHERAKLIO02ER_ENDOMETRIUM | 1
U343_CENTRAL_NERVOUS_SYSTEM | 1
NCIH1838_LUNG | 0.758
NB4_HAEMATOPOIETIC_AND_LYMPHOID_TISSUE | 0.277
CORL279_LUNG | 1
MSTO211H_PLEURA | 0.672
JURKAT_HAEMATOPOIETIC_AND_LYMPHOID_TISSUE | 0.66
CHLA57_BONE | 0.647
WM88_SKIN | 0.893
ICC9_BILIARY_TRACT | 1
HH_HAEMATOPOIETIC_AND_LYMPHOID_TISSUE | 1
TOV112D_OVARY | 0.724
LAMA84_HAEMATOPOIETIC_AND_LYMPHOID_TISSUE | 0.832
RD_SOFT_TISSUE | 0.657 ± 0.29
CORL105_LUNG | 0.747
COV318_OVARY | 0.899

Test System | AUC of viability dose-response curve
JVM3_HAEMATOPOIETIC_AND_LYMPHOID_TISSUE | 1
LN382_CENTRAL_NERVOUS_SYSTEM | 1
VMRCRCW_KIDNEY | 0.631
TOV21G_OVARY | 0.644
JAR_PLACENTA | 0.238
CHLA10_BONE | 0.97
H103_UPPER_AERODIGESTIVE_TRACT | 0.997
639V_URINARY_TRACT | 0.515
H157_UPPER_AERODIGESTIVE_TRACT | 0.993
RH28_SOFT_TISSUE | 0.625
GI1_CENTRAL_NERVOUS_SYSTEM | 0.602
KMRC20_KIDNEY | 0.738
HAC2_OVARY | 1
SNU869_BILIARY_TRACT | 1
NCIH596_LUNG | 1
HUG1N_STOMACH | 1
SNU398_LIVER | 0.849
LU99_LUNG | 0.831
IGR1_SKIN | 0.626
SNU1079_BILIARY_TRACT | 0.648
LOVO_LARGE_INTESTINE | 0.131
CCSW1_BILIARY_TRACT | 0.832

Test System | AUC of viability dose-response curve
U2940_HAEMATOPOIETIC_AND_LYMPHOID_TISSUE | 1
U87MG_CENTRAL_NERVOUS_SYSTEM | 0.732
SW13_ADRENAL_CORTEX | 0.602
MCC13_SKIN | 1
JHOS2_OVARY | 0.472
SUPT11_HAEMATOPOIETIC_AND_LYMPHOID_TISSUE | 1
K562_HAEMATOPOIETIC_AND_LYMPHOID_TISSUE | 1
KYM1_SOFT_TISSUE | 0.446
U2973_HAEMATOPOIETIC_AND_LYMPHOID_TISSUE | 0.734
JJN3_HAEMATOPOIETIC_AND_LYMPHOID_TISSUE | 0.896
RPMI7951_SKIN | 1
TT1TKB_LARGE_INTESTINE | 1
HDQP1_BREAST | 0.853
ACCMESO1_PLEURA | 1
SNUC2A_LARGE_INTESTINE | 0.514
HT1376_URINARY_TRACT | 1
SHP77_LUNG | 0.641
KMH2_HAEMATOPOIETIC_AND_LYMPHOID_TISSUE | 1
SKMEL2_SKIN | 1
JIMT1_BREAST | 1
HCC515_LUNG | 0.612
KMCH1_BILIARY_TRACT | 0.96

Test System | AUC of viability dose-response curve
HKGZCC_BILIARY_TRACT | 1
MOLM13_HAEMATOPOIETIC_AND_LYMPHOID_TISSUE | 0.356
UMUC6_URINARY_TRACT | 0.585
OCIC5X_OVARY | 0.69
SCC3_HAEMATOPOIETIC_AND_LYMPHOID_TISSUE | 1
RBE_BILIARY_TRACT | 1
CAL51_BREAST | 0.595
NCIH1437_LUNG | 0.895
LCLC103H_LUNG | 1
LS_AUTONOMIC_GANGLIA | 0.248
LS180_LARGE_INTESTINE | 0.961
MEWO_SKIN | 0.268
RPMI8402_HAEMATOPOIETIC_AND_LYMPHOID_TISSUE | 0.266
ANGMCSS_CENTRAL_NERVOUS_SYSTEM | 1
HCSC1_CERVIX | 0.357
HEC59_ENDOMETRIUM | 0.677
GCT27_TESTIS | 0.696
SNU478_BILIARY_TRACT | 0.861
TANOUE_HAEMATOPOIETIC_AND_LYMPHOID_TISSUE | 1
NCIH1623_LUNG | 0.92
PK59_PANCREAS | 0.694
2313287_STOMACH | 0.631

Test System | AUC of viability dose-response curve
SNB75_CENTRAL_NERVOUS_SYSTEM | 1
NUGC3_STOMACH | 1
A2058_SKIN | 1
HCC1438_LUNG | 0.893
SKNDZ_AUTONOMIC_GANGLIA | 0.267
MDAMB453_BREAST | 0.401
LXF289_LUNG | 0.522
COV434_OVARY | 0.556
KNS62_LUNG | 0.953
HOS_BONE | 0.931 ± 0.027
KYSE150_OESOPHAGUS | 0.834
MKN1_STOMACH | 1
OV7_OVARY | 1
LMSU_STOMACH | 0.672
OC314_OVARY | 0.619
HEC1A_ENDOMETRIUM | 0.407
SNU213_PANCREAS | 0.933
UMUC7_URINARY_TRACT | 1
HCC95_LUNG | 1
BHY_UPPER_AERODIGESTIVE_TRACT | 0.851
U266B1_HAEMATOPOIETIC_AND_LYMPHOID_TISSUE | 0.784
LI7_LIVER | 1
